# US4810779A, “Decapeptides having hypotensive action and process for their preparation” (Enichem Elastomeri S.p.A., priority 1985, dated 1989)
# Where two headings read alike, the source gives them in different places. Where a SMILES comes first, the peptide text is derived from it. [ ]: non-standard residue; d: D form. pGlu = O=C1CC[C@@H](C(=O)O)N1; Orn = NCCC[C@H](N)C(=O)O
# Legend:
# [1] = test system: arterial pressure; assay: Effect of the decapeptides on arterial pressure (injection into femoral vein of anaesthetized rats); format: in vivo, C.D. male rats; conditions: for Duration of hypotensive effect / Pressure Difference Maximum / Pressure Difference Minimum / hypotensive effect (in words): femoral vein; for Duration of hypotensive effect / Pressure Difference Maximum / Pressure Difference Minimum: anaesthetized rats
# Description: (§1) The activity of the decapeptides of the present invention has been determined in vivo on C.D. male rats available from Charles-River Co., anesthetized by ethyl urethane.
# (§2) The effect on the arterial pressure and on bradykinin potentating has been studied by injecting into femoral vein a decapeptide (I) in an amount of from 0.3 to 0.2 mg/kg of body weight.
# Five C.D. male rats available from Charles River Co., of weight of 200-300 g, anaesthetized by ethyl urethane (1.75 g/kg by intraperitoneal way) are used.
# After tracheal cannulating, the right-hand carotid artery is isolated and connected by cannula to a Hewlett-Packard Model 1280 pressure transducer.
# From isolated left-hand carotid the arterial flow is recorded by means of Biotronex® electromagnetic flowmeter, and pressure variation wiith the (dp/dt), electrocardiogram (ECG) and the beats per minute (BPM) are recorded on Hewlett Packard Polygraph.
# The decapeptides of the present invention have been tested by being injected into right-hand femoral vein at the dose of 0.3-0.2 mg/kg of body weight, and compared to the decapeptide (II) of the prior art.
# [2] = test system: arterial pressure; conditions: injected into the femoral vein of rats; cited from earlier work
# [3] = test system: bradykinin; assay: Effect of decapeptides as bradykinin potentiators (injection into femoral vein soon before bradykinin); format: in vivo, Male C.D. rats; conditions: for Duration of hypotensive effect (t) / Pressure Difference Maximum / Pressure Difference Minimum: bradykinin potentiation, femoral vein soon before bradykinin; for potentiation of the hypotensive effect / activity of bradykinin (in words): in vivo, male rats
# Description: as §1, §2
# Male C.D. rats of Charles-River race are treated as described in Example 8, and submitted to test by bradykinin.
# Bradykinin is a physiologic peptide which, when injected into femoral vein, causes a fast but not long-lasting hypotensive effect, because it is rapidly degraded at pulmonary circulation level by the Angiotensin Conversion Enzyme (ACE).
# The peptides of the present invention are tested by being injected into the right-hand femoral vein soon before bradykinin, and comparing them to the decapeptide of the prior art.
# [4] = test system: arterial pressure; conditions: cited from earlier work
Structure (SMILES),Duration of hypotensive effect ([1]; 0.3 mg/kg) [min],Pressure Difference Maximum ([1]; 0.3 mg/kg) [mmHg],Pressure Difference Minimum ([1]; 0.3 mg/kg) [mmHg],lowering in arterial pressure [2],potentiation of the activity of bradykinin [2],Duration of hypotensive effect (t) ([3]; 0.3 mg/kg) [min],Pressure Difference Maximum ([3]; 0.3 mg/kg) [mmHg],Pressure Difference Minimum ([3]; 0.3 mg/kg) [mmHg],"eurhythmizing effect ([1]; in vivo, male rats)","hypotensive effect (in words) ([1]; in vivo, male rats)",potentiation of the hypotensive effect / activity of bradykinin (in words) [3],Duration of hypotensive effect ([1]; 0.2 mg/kg) [min],Pressure Difference Maximum ([1]; 0.2 mg/kg) [mmHg],Pressure Difference Minimum ([1]; 0.2 mg/kg) [mmHg],Duration of hypotensive effect (t) ([3]; 0.2 mg/kg) [min],Pressure Difference Maximum ([3]; 0.2 mg/kg) [mmHg],Pressure Difference Minimum ([3]; 0.2 mg/kg) [mmHg],antihypertensive action ([4]; administered orally),antihypertensive action ([4]; intravenous administration)
"CC[C@H](C)[C@H](NC(=O)[C@H](CCC(N)=O)NC(=O)[C@@H]1CCCN1C(=O)[C@H](CCCNC(=N)N)NC(=O)[C@@H]1CCCN1C(=O)[C@H](Cc1c[nH]c2ccccc12)NC(=O)[C@H](CC(C)C)NC(=O)[C@@H]1CCC(=O)N1)C(=O)N1CCC[C@H]1C(=O)N1CCC[C@H]1C(=O)O [Decapeptide II, Glp-Leu-Trp-Pro-Arg-Pro-Gln-Ile-Pro-Pro-OH, reference compound] ([pGlu]LWPRPQIPP-OH)",10,15,15,causes a lowering in arterial pressure,"potentiates the activity of bradykinin, prolonging the hypotensive effect thereof",10,15,15,,,,,,,,,,,
"CC[C@H](C)[C@H](NC(=O)[C@H](CCC(N)=O)NC(=O)[C@@H]1CCCN1C(=O)[C@H](CCCN)NC(=O)[C@@H]1CCCN1C(=O)[C@H](Cc1c[nH]c2ccccc12)NC(=O)[C@H](CC(C)C)NC(=O)[C@@H]1CCC(=O)N1)C(=O)N1CCC[C@H]1C(=O)N1CCC[C@H]1C(=O)O [Decapeptide III, Glp-Leu-Trp-Pro-Orn-Pro-Gln-Ile-Pro-Pro-OH] ([pGlu]LWP[Orn]PQIPP-OH)",> 10,20,25,,,90,15,15,shows an eurhythmizing effect,stronger and more long-lasting hypotensive effect than decapeptide (II),potentiates the hypotensive effect of bradykinin,,,,,,,,
"CC(C)C[C@H](NC(=O)[C@@H]1CCC(=O)N1)C(=O)N[C@@H](Cc1c[nH]c2ccccc12)C(=O)N1CCC[C@H]1C(=O)N[C@@H](CCCN)C(=O)N1CCC[C@H]1C(=O)N[C@@H](Cc1c[nH]cn1)C(=O)N[C@H](C(=O)N1CCC[C@H]1C(=O)N1CCC[C@H]1C(=O)O)C(C)C [Decapeptide IV, Glp-Leu-Trp-Pro-Orn-Pro-His-Val-Pro-Pro-OH] ([pGlu]LWP[Orn]PHVPP-OH)",,,,,,,,,,cause in vivo a hypotensive effect,potentiate the activity of bradykinin,< 10,20,25,45,25,30,,
"CC(C)C[C@H](NC(=O)[C@@H]1CCC(=O)N1)C(=O)N[C@@H](Cc1c[nH]c2ccccc12)C(=O)N1CCC[C@H]1C(=O)N[C@@H](CCCNC(=N)N)C(=O)N1CCC[C@H]1C(=O)N[C@@H](Cc1c[nH]cn1)C(=O)N[C@H](C(=O)N1CCC[C@H]1C(=O)N1CCC[C@H]1C(=O)O)C(C)C [Decapeptide V, Glp-Leu-Trp-Pro-Arg-Pro-His-Val-Pro-Pro-OH] ([pGlu]LWPRPHVPP-OH)",,,,,,,,,,cause in vivo a hypotensive effect,potentiate the activity of bradykinin,< 10,15,15,30,15,30,,
CC[C@H](C)[C@H](NC(=O)[C@H](CCC(N)=O)NC(=O)[C@@H]1CCCN1C(=O)[C@H](CCCNC(=N)N)NC(=O)[C@@H]1CCCN1C(=O)[C@H](Cc1c[nH]c2ccccc12)NC(=O)[C@@H]1CCC(=O)N1)C(=O)N1CCC[C@H]1C(=O)N1CCC[C@H]1C(=O)O [Teprotide],,,,,,,,,,,,,,,,,,inactive when administered orally,powerful antihypertensive agent
